# Legend:
# cotton tumor tissue = assay: Cotton tumor tissue growth on medium containing glyphosate; format: cell-based; settings: 0.5 mM glyphosate
# Experimental: A plant transformation vector similar to pMON546 is prepared following the general procedure outlined in Example 1 except that the CTP/EPSPS coding sequence is obtained from cotton. Seeds of cotton (cultivator Delta Pine 50) are surface sterilized using sodium hypochlorite and germinated in vitro on a basal medium in the dark. After 2 weeks hypocotyls and cotyledons are cut into pieces and innoculated with a tumorous strain of A. tumefaciens containing the above described transformation vector and helper plasmid pGV3111. After 3 days coculture on MS basal medium, the explants are transferred to the same medium with 500 mg/l carbenicillin to kill the bacteria. After 2 to 4 weeks, tumor tissue is transferred to the same medium containing 0.5 mM glyphosate.
# Control tissue was produced using tumorous A. tumefaciens cells containing the helper plasmid pGV3111 and pMON200.
# [1] = system: potato stem explant tissue; settings: tissue transformed with pMON542
# Experimental: Potato--Shoot tips of virus-free Russet Burbank are subcultured on media containing MS major and minor salts, 0.17 g/l sodium dihygrogen phosphate, 0.4 mg/l thiamine hydrochloride, 0.1 g/l inositol, 3% sucrose, 1.5 g/l Gelrite™ (Kelco, Co ) at pH 5.6. Cultures are grown at 24C in a 16 hour photoperiod. Shoots are used approximately 3-4 weeks after subculturing. Stem internodes are cut into approximately 8 mm lengths and split lengthwise, then the cut surface is smeared with Agrobacterium carrying binary vector pMON542 and helper plasmid pTiT37-SE which had been streaked on an LB agar plate and grown for a few days. Stem sections are placed cut side down on the surface of the medium containing MS salts, MS organics, 3% sucrose, 2.25 mg/l BA, […] NAA, 10 mg/l GA, 1.5 g/l Gelrite at pH 5.6. After 4 days, the stem explants are transferred to the same medium but with carbenicillin at 500 mg/l and kanamycin as the selective agent at 0 or 300 mg/l. Two weeks after inoculation, the explants are moved onto medium of the same composition but without NAA.
# EPSPS = EPSPS (Escherichia coli, UniProt P0A6D3); format: biochemical, E. coli
# Text: This mutant bacterium was designated E. coli 11303 SM-1. The aroA gene encoding EPSPS from this mutant bacterium was isolated as follows.
# Isolation of aroA gene encoding EPSPS from E. coli 11303 SM-1: The DNA from this bacterium was isolated (Marmur, J. (1961) J. Mol. Biol. 3:208-218). […] This fragment was cloned into the vector pKC7 (Rao, R. N. & Rogers, S. G. (1979), Gene, F. Jul. 7, 1982) and the resulting plasmid was used for trans-formation of E. coli. […] This clone was designated pMON9538. […] This clone was designated pMON9540. […] The E. coli mutant EPSPS gene was incorporated into plant transformation vector with and without a chloroplast transit peptide in the following manner.
# MP4 cells = assay: Culture of MP4 petunia suspension cells in MS media containing glyphosate; format: cell-based; settings: 0.5 mM glyphosate (sodium salt)
# Experimental: The starting cell line, designated as the MP4 line, was derived from a Mitchell diploid petunia (see, e.g., Ausubel 1980). The MP4 cells were suspended in Murashige and Skoog (MS) culture media, (GIBCO, Grand Island, N.Y.) All transfer involved the transfer of 10 ml of suspension culture into 50 ml of fresh media. Cultivation periods until the next transfer ranged from 10 to 14 days, and were based on visual indications that the culture was approaching saturation.
# After two transfers, the surviving cells were transferred into fresh media containing 1.0 mM glyphosate. After two transfers at 1.0 mM, the surviving cells were transferred sequentially into 2.5 mM glyphosate, 5.0 mM glyphosate, and 10 mM glyphosate. The MP4-G cells were subsequently shown (by a Southern blot) to have about 15-20 copies of the EPSPS gene, due to a genetic process called "gene amplification" (see, e.g., Schimke 1982). Although spontaneous mutations might have occurred during the replication of any cell, there is no indication that any mutation or other modification of the EPSPS gene occurred during the gene amplification process. The only known difference between the MP4 and the MP4-G cells is that the MP4-G cells contain multiple copies of an EPSPS gene and possibly other genes located near it on the chromosomes of the cells.
# tomato leaf fragments = assay: Tomato leaf callus assay on glyphosate; format: cell-based, tomato VF36; settings: 0.5 mM glyphosate, 10 days
# Experimental: Sterile seedlings of VF36 tomato are grown on water agar. Hypocotyls and cotyledons are excised and cultured for 2 days on MS medium containing B5 vitamins, 30 g/l sucrose and 1 mg/l benzyladenine and 0.1 mg/l indole acetic acid. The seedlings are then infected with the A. tumefaciens vector containing the chimeric EPSPS gene described in Example 2, by immersing for about 30 seconds in a culture of A. tumefaciens containing the chimeric EPSP synthase gene that had been diluted to 10^7 bacteria/ml. Explants are obtained by cutting sections from the seedlings. The explants are blotted dry and incubated as described previously in Example 2 except that the medium contains only 10% of standard concentration of MS salts. After 2 days of coculture, the explants are transferred to selective medium containing 100 ug/ml kanamycin. Transformed tomato plants grow from the explants. Leaves from these plants are tested for glyphosate resistance using a leaf callus assay described below. Tomato leaf fragments from plants containing vector alone (pMON200) or the pMON546 chimeric EPSPS gene are incubated on callus medium described above containing 0.5 mM glyphosate.
# flax callus = assay: Flax callus resistance to glyphosate; format: cell-based; settings: glyphosate between 5.0 and 20.0 mM
# Experimental: Flax seeds are surface-sterilized with 70% ethanol, 25% Chlorox and rinsed with sterile distilled water. The seeds are placed on solid MS medium and allowed to germinate in the light for 5-7 days. The hypocotyls are removed aseptically and inoculated with A. tumefaciens cells containing the above-described transformation vector and helper plasmid pTiB6S3-SE or pTiT37-SE and permitted to co-culture for 2 days on MS medium containing 1 mg/l benzylaminopurine, 0.02 mg/l naphthalene acetic acid and 4% sucrose. The hypocotyls are then placed on MS medium supplemented with 400 mg/l kanamycin and 500 mg/l carbenicillin.
# Control tissue is prepared using A. tumefaciens cells containing helper plasmid pTiB6S3-SE or pTiT37-SE and vector pMON200.
# tobacco leaf disks = assay: Callus growth from tobacco leaf disks on glyphosate; format: cell-based, N. tabacum; settings: for callus tissue formation: 0.5 mM glyphosate
# Text: Leaf disks were excised from tobacco plants (N. tabacum) and treated as described above with A. tumefaciens cells containing pMON546 (or pMON505, for control cells) and helper plasmid pGV3111-SE.
# EPSPS, sequence (P0A6D3 whole entry): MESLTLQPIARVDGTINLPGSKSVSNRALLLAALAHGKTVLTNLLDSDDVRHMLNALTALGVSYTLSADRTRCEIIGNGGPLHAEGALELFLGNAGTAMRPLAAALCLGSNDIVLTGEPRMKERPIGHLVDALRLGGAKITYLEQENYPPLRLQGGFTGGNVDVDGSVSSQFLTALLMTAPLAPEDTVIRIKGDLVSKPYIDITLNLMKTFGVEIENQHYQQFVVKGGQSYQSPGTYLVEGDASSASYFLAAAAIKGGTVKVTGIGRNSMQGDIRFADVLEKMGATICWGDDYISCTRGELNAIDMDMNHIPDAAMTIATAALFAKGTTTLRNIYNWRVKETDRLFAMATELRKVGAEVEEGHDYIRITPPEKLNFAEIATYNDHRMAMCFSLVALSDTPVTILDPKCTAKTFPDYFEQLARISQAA
smiles,measurement,setting,value
"O=C(O)CNCP(=O)(O)O [glyphosate, N-phosphonomethylglycine]",tissue growth,cotton tumor tissue; pMON200 transformed tissue (control) and non-transformed tissue,is inhibited
same,tissue growth,cotton tumor tissue; tissue transformed with cotton CTP/EPSPS vector,demonstrates glyphosate resistance by continuing growth
same,resistance of tissue,[1],exhibits substantial resistance to glyphosate
same,glyphosate sensitivity of EPSPS,EPSPS; EPSPS of mutant cells (E. coli 11303 SM-1) compared with wild type E. coli,significantly different from that of wild type
same,glyphosate tolerance of EPSPS,EPSPS; EPSPS produced by hybrid K-12/11303 SM-1 aroA gene (pMON9540),retained its glyphosate tolerance
same,viability at 500 µM,"MP4 cells; estimated, read-out: cells which survived, share of the starting population",< 1%
same,ability of cells to reproduce,MP4 cells; MS media,large majority of cells were unable to reproduce
same,callus growth from leaves,tomato leaf fragments; control leaves (pMON200 vector alone),completely inhibited and showed no signs of callus growth
same,callus growth from leaves,tomato leaf fragments; leaves from plants transformed with chimeric EPSPS gene (pMON546),produced callus
same,tissue response,flax callus; control tissue (pMON200),bleaches and dies
same,callus resistance,flax callus; selected callus transformed with EPSPS vector,demonstrates resistance to glyphosate
same,callus tissue formation,tobacco leaf disks; cells transformed with CaMV/EPSPS gene (pMON546),created substantial amounts of callus tissue
same,callus tissue formation,tobacco leaf disks; control cells without the gene (pMON505),did not create any detectable callus tissue
same,glyphosate resistance of transformed tobacco cells,"tobacco leaf disks; pMON542, E. coli mutant EPSPS construct with CTP",resulted in glyphosate resistance
same,glyphosate resistance of transformed tobacco cells,"tobacco leaf disks; pMON8078, E. coli mutant EPSPS construct without CTP",failed to confer glyphosate resistance
